The record followed here is ChEMBL document CHEMBL5291721, “A preclinical secondary pharmacology resource illuminates target-adverse drug reaction associations of marketed drugs” (Nat Commun, 2023).

For orientation: AC50 means the concentration at which the activity in the assay is half-maximal.

Some targets named below: D(3) dopamine receptor (Homo sapiens, UniProt P35462); Adenosine receptor A2a (Homo sapiens, UniProt P29274); Melanocortin receptor 3 (Homo sapiens, UniProt P41968); Vasopressin V1a receptor (Homo sapiens, UniProt P37288).
For assay [1], the target named is Beta-1 adrenergic receptor (Homo sapiens, UniProt P08588). It is filed as functional.
Chain of Beta-1 adrenergic receptor (P08588 whole entry): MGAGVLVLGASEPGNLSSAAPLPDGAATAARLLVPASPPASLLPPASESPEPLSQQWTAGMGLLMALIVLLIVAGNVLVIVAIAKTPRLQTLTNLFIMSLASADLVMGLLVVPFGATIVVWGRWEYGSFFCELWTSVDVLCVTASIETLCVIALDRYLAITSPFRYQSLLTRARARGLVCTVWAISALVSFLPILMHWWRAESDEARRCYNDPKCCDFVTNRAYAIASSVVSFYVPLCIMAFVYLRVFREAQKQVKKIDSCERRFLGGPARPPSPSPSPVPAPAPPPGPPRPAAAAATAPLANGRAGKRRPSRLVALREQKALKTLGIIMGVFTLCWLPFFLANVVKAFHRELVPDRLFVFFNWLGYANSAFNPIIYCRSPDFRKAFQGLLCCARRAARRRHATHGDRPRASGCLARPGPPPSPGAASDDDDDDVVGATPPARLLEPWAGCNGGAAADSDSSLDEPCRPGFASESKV
Assay [2] addresses T1, Equilibrative nucleoside transporter 1 (Homo sapiens, UniProt Q99808).
T1 sequence (Q99808 whole entry): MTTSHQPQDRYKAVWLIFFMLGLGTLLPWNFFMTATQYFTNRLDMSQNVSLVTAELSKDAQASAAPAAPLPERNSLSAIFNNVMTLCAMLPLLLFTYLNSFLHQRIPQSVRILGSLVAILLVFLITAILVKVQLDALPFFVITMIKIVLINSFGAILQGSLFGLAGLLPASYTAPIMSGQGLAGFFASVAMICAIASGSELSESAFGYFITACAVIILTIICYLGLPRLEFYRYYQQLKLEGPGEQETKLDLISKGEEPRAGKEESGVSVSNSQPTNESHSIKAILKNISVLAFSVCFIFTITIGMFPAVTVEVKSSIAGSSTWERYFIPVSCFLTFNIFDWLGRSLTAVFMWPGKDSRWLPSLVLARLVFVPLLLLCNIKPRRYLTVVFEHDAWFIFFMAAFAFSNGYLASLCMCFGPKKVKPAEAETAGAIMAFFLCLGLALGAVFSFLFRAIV

Assay [3] has as its target Growth hormone secretagogue receptor type 1 (Homo sapiens, UniProt Q92847).
Assay [4] concerns the target 5-hydroxytryptamine receptor 2B (Homo sapiens, UniProt P41595). Type of assay: functional, cell-based.
Assay [5] concerns the target T2, Type-1 angiotensin II receptor (Homo sapiens, UniProt P30556).
T2 sequence (P30556 whole entry): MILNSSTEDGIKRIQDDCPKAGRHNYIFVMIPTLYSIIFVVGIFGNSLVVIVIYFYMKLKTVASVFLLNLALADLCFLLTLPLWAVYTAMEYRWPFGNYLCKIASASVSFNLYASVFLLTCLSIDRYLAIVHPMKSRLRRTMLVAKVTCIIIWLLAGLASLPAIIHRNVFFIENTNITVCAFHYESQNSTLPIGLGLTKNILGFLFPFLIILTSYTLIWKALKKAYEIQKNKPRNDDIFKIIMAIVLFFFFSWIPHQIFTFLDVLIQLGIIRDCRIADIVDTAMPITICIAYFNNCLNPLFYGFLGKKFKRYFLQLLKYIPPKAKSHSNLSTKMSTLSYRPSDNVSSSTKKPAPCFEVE

The target in assay [6] is T3, 5-hydroxytryptamine receptor 2C (Homo sapiens, UniProt P28335).
T3 sequence (P28335 whole entry): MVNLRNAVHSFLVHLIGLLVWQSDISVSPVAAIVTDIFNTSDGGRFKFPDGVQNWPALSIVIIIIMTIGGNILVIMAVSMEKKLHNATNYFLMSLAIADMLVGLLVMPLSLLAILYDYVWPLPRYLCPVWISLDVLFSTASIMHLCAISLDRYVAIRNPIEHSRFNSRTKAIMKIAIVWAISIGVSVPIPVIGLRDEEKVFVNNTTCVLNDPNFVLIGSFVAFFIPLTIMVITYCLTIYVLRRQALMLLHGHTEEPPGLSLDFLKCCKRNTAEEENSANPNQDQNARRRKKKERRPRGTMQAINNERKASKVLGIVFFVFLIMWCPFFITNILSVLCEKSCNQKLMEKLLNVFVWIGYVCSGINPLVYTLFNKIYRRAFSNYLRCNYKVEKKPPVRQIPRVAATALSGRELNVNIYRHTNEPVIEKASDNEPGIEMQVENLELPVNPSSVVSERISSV

The target in assay [7] is T4, 5-hydroxytryptamine receptor 1A (Homo sapiens, UniProt P08908).
T4 sequence (P08908 whole entry): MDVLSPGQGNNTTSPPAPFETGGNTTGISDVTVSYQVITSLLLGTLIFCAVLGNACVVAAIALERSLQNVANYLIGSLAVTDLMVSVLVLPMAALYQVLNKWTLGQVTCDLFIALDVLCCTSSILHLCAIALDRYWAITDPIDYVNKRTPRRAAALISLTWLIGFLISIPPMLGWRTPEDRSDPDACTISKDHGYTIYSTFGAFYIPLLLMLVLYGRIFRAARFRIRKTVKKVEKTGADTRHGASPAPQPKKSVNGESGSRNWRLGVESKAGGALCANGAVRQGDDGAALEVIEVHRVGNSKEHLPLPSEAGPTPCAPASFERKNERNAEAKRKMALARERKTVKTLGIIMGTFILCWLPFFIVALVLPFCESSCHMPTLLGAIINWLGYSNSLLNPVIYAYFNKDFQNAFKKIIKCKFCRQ
It is filed as functional, cell-based.

Assay [8] addresses T5, Alpha-2C adrenergic receptor (Homo sapiens, UniProt P18825).
T5 sequence (P18825 whole entry): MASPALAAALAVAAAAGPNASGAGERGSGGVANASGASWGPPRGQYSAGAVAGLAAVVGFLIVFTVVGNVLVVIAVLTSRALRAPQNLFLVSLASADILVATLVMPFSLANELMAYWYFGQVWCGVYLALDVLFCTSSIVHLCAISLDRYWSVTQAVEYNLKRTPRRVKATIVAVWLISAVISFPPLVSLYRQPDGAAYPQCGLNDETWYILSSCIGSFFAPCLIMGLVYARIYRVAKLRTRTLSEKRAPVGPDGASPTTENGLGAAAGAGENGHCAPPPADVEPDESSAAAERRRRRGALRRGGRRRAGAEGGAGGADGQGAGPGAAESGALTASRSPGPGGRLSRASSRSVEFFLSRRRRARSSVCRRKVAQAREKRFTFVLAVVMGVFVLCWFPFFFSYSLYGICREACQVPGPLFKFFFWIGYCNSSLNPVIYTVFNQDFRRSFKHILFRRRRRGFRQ
Type of assay: functional.

Assay [9] deals with Gamma-aminobutyric acid receptor subunit alpha-1 (Rattus norvegicus, UniProt P62813). It is filed as functional.
Chain of Gamma-aminobutyric acid receptor subunit alpha-1 (P62813 whole entry): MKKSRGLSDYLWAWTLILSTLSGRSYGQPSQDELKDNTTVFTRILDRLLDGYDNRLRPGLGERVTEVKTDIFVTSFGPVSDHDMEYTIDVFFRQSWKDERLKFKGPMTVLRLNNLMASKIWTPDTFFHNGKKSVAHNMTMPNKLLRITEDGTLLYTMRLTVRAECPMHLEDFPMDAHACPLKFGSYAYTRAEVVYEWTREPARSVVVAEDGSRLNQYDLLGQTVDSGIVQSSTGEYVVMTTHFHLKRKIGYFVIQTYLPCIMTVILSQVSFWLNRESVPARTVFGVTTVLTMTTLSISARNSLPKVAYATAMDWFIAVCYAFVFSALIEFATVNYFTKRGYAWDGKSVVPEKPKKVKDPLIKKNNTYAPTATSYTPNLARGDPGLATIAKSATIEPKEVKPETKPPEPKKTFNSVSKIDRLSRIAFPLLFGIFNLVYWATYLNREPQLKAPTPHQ
The target in the next assay is Bile salt export pump (Homo sapiens, UniProt O95342). Type of assay: functional.
Chain of Bile salt export pump (O95342 whole entry): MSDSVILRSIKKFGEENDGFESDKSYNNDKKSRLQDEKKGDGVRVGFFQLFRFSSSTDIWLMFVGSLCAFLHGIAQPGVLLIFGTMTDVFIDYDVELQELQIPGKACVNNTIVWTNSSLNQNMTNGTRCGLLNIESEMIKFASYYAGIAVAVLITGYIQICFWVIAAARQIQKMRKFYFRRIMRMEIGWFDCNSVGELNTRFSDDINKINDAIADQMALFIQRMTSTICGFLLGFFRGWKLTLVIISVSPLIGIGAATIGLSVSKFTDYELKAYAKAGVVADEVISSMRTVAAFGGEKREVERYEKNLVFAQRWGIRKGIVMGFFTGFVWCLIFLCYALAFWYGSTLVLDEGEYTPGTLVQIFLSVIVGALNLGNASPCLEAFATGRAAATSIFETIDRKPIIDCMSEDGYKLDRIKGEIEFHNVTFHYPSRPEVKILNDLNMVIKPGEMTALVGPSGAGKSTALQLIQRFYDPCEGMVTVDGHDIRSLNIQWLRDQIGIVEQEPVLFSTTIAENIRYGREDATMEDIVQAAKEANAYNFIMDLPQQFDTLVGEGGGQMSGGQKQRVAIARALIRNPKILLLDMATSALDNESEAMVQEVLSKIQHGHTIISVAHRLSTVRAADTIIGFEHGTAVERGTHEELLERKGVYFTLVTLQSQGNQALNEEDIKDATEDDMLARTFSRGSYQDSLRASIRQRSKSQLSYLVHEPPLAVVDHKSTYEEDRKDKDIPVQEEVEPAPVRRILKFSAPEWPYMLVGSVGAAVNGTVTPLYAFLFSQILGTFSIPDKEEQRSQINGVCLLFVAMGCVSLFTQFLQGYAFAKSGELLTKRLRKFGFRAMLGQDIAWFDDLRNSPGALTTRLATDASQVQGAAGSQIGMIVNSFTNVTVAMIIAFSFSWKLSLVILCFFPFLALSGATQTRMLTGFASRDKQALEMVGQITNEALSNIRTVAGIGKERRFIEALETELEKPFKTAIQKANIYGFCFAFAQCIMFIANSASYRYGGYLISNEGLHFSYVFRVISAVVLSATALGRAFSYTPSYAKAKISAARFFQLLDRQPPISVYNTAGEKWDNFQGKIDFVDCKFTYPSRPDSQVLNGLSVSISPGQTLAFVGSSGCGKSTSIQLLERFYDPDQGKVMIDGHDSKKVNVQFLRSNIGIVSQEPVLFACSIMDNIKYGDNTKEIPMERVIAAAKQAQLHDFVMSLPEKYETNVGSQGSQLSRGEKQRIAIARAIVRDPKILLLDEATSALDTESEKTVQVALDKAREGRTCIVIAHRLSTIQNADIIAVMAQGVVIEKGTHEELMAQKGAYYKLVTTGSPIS
Assay [10] concerns the target Sodium-dependent dopamine transporter (Homo sapiens, UniProt Q01959).
Note: assay procedure not described here.

Chain of 5-hydroxytryptamine receptor 2B (P41595 whole entry): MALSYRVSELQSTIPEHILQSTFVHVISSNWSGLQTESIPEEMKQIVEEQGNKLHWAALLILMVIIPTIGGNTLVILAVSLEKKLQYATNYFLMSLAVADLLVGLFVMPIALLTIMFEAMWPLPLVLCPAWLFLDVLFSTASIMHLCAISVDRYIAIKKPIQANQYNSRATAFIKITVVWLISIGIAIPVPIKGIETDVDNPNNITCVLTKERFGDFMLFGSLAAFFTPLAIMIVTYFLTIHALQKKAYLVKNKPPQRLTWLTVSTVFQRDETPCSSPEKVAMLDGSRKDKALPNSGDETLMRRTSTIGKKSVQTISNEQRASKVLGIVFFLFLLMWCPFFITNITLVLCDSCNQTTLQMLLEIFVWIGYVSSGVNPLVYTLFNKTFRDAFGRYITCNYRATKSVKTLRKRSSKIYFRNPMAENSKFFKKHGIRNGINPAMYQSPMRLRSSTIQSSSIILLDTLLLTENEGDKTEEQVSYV
Chain of Adenosine receptor A2a (P29274 whole entry): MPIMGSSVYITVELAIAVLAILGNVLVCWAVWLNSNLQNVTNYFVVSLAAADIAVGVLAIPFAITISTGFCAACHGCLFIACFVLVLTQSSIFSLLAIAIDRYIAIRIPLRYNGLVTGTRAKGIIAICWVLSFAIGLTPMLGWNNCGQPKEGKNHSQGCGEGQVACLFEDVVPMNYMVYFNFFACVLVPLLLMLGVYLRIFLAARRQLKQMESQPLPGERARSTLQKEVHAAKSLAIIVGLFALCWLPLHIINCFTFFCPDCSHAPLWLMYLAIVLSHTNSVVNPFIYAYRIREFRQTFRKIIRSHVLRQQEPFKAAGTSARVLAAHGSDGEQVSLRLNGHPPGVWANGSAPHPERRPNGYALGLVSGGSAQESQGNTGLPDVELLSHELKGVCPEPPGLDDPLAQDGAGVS
Chain of Growth hormone secretagogue receptor type 1 (Q92847 whole entry): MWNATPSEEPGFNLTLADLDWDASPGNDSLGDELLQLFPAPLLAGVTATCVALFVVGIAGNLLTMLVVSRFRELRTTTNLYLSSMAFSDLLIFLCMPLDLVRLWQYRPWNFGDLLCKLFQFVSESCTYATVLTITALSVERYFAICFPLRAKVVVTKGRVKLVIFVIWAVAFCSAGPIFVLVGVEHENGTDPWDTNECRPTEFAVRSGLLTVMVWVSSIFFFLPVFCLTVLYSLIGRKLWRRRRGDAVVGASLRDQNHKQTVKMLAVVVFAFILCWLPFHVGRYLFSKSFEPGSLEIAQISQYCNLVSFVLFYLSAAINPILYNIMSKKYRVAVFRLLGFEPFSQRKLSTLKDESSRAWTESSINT
Chain of Melanocortin receptor 3 (P41968 whole entry): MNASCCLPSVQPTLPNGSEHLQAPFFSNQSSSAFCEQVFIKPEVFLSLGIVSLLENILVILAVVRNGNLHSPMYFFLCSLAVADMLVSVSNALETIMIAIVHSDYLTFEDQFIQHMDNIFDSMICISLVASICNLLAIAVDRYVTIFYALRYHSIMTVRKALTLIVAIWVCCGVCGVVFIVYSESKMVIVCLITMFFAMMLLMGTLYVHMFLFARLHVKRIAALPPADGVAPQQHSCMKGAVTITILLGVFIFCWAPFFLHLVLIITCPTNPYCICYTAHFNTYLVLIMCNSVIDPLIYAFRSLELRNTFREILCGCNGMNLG
Chain of Sodium-dependent dopamine transporter (Q01959 whole entry): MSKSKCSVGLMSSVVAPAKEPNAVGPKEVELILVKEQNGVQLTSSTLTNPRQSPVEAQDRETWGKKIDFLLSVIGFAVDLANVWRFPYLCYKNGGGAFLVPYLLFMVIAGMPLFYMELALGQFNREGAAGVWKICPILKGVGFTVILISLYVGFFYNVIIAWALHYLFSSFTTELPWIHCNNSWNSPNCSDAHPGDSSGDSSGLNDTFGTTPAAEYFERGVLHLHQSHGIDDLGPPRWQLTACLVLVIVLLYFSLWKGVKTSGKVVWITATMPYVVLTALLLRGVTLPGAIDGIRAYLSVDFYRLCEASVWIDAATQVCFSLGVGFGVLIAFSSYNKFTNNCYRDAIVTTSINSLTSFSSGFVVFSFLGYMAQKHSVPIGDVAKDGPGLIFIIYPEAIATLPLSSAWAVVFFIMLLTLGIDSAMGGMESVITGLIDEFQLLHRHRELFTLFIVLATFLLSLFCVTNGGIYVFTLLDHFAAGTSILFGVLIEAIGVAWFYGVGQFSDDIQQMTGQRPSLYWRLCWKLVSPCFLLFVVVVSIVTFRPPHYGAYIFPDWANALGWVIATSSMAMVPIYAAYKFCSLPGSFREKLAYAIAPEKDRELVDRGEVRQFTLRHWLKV
Chain of D(3) dopamine receptor (P35462 whole entry): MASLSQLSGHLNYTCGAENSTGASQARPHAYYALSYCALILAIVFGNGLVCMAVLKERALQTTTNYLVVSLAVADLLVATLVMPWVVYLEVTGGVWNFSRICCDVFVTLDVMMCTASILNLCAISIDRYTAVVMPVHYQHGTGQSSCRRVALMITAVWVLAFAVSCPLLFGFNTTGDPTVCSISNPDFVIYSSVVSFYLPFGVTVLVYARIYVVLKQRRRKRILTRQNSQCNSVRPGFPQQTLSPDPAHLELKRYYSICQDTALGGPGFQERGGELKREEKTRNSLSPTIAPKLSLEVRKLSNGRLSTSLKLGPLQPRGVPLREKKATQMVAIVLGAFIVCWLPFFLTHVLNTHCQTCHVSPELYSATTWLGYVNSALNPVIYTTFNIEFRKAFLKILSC

For the compound `CCCSc1ccc2nc(NC(=O)OC)[nH]c2c1` [ALBENDAZOLE], the AC50 was over 10 µM in assay [1]; over 30 µM in [2]; over 10 µM in assay [3]; over 30 µM at D(3) dopamine receptor; over 10 µM in assay [4]; over 30 µM on Adenosine receptor A2a. The concentration at half-maximal activity (AC50) in assay [5] is over 10 µM; in assay [6], over 30 µM; in assay [7] it was over 10 µM; in assay [8] it was over 10 µM; in assay [9] it was over 10 µM; on Bile salt export pump, over 300 µM. Moreover, the AC50 (in assay [10]; on Melanocortin receptor 3) was over 30 µM in each case.
As to `C=CCc1ccccc1OCC(O)CNC(C)C` (stereo not drawn) [ALPRENOLOL], the half-maximal activity concentration (AC50) (in [2]; in assay [3]; on D(3) dopamine receptor; in assay [4]; at Adenosine receptor A2a; in assay [5]) was over 30 µM throughout. Further, the AC50 in assay [6] was over 30 µM; in assay [7], over 30 µM; in [8], 14.4 µM; in [9] it was over 30 µM; in [10] it was over 30 µM; at Vasopressin V1a receptor, over 30 µM. At Melanocortin receptor 3, this compound yielded a half-maximal activity concentration (AC50) of over 30 µM.
`COC(c1ccccc1)(c1ccccc1)[C@H](Oc1nc(C)cc(C)n1)C(=O)O` [AMBRISENTAN]: the AC50 at Bile salt export pump is 200 µM.
The same measure, in the same setting: the result for `CCc1oc2ccccc2c1C(=O)c1cc(I)c(O)c(I)c1` [BENZIODARONE] reads 6.3 µM.
Still for that read-out and setting: the result for `C[N+](C)(C)CCO` [CHOLINE] reads over 300 µM.
Turning to `CN(C)/N=N/c1[nH]cnc1C(N)=O` [DACARBAZINE], the half-maximal activity concentration (AC50) is over 10 µM in [1]; over 10 µM in [2]; over 10 µM in [3]; over 30 µM at D(3) dopamine receptor; over 10 µM in [4]; over 10 µM at Adenosine receptor A2a. Also, the half-maximal activity concentration (AC50) in assay [5] was over 10 µM; in [6], over 30 µM; in [7], over 10 µM; in assay [8], over 10 µM; in assay [9], over 10 µM; on Bile salt export pump, over 300 µM. The half-maximal activity concentration (AC50) (in assay [10]; at Melanocortin receptor 3) was over 10 µM in each case.
For the compound `CN(C)CC(c1ccc(O)cc1)C1(O)CCCCC1` (stereo not drawn) [DESVENLAFAXINE], the AC50 at Bile salt export pump is over 300 µM.
As to `O=C(Cc1ccc(-c2ccccc2)cc1)Nc1ccccn1` [DIFENPIRAMIDE], the AC50 (on D(3) dopamine receptor; in assay [4]; in [6]; in [7]; in assay [8]; in assay [9]) was over 30 µM each time.
Regarding `O=C(O)c1cc(O)ccc1O` [GENTISIC ACID], on Bile salt export pump, the AC50 is over 300 µM.
Still for that read-out and setting: the result for `CCC1=C(C)CN(C(=O)NCCc2ccc(S(=O)(=O)NC(=O)N[C@H]3CC[C@H](C)CC3)cc2)C1=O` [GLIMEPIRIDE] reads 14 µM.
For the compound `O=P1(NCCCl)OCCCN1CCCl` (stereo not drawn) [IFOSFAMIDE], the AC50 (in assay [1]; in assay [2]; in [3]; at D(3) dopamine receptor; in [4]; at Adenosine receptor A2a) was over 30 µM each time. Besides, the AC50 is over 30 µM in [5]; over 30 µM in assay [6]; over 30 µM in assay [7]; over 30 µM in assay [8]; over 30 µM in [9]; over 300 µM on Bile salt export pump. Moreover, the concentration at half-maximal activity (AC50) (in [10]; at Melanocortin receptor 3) was over 30 µM each time.
For `CC(C)Nc1ncccn1` [ISAXONINE], the half-maximal activity concentration (AC50) at Bile salt export pump is over 300 µM.
On the same count and under the same terms, the result for `OCCN1C[C@H](O)[C@@H](O)[C@H](O)[C@H]1CO` [MIGLITOL] reads over 300 µM.
In the case of `Clc1ccc(C(c2ccccc2Cl)C(Cl)Cl)cc1` (stereo not drawn) [MITOTANE], the AC50 in assay [1] is over 10 µM; in [2], over 10 µM; in assay [3], over 10 µM; on D(3) dopamine receptor, over 30 µM; in assay [4], over 10 µM; on Adenosine receptor A2a, over 10 µM. The AC50 is over 10 µM in assay [5]; over 30 µM in assay [6]; over 10 µM in assay [7]; over 10 µM in assay [8]; over 10 µM in assay [9]; 41 µM at Bile salt export pump. Further, the AC50 (in assay [10]; on Melanocortin receptor 3) was over 10 µM each time.
`O=C(CCNNC(=O)c1ccncc1)NCc1ccccc1` [NIALAMIDE]: the AC50 on Bile salt export pump is over 300 µM.
Turning to `CC(C)(C)NC[C@H](O)COc1ccccc1C1CCCC1` [PENBUTOLOL], on Bile salt export pump, the AC50 is over 300 µM.
The same measure, in the same setting: for `CC(C)(S)[C@@H](N)C(=O)O` [PENICILLAMINE] the value was over 300 µM.
Consider `COc1cc(NC(C)CCCN)c2ncccc2c1` (stereo not drawn) [PRIMAQUINE], for which the half-maximal activity concentration (AC50) in assay [3] is over 30 µM; at Adenosine receptor A2a, over 30 µM; in assay [5], over 30 µM; at Bile salt export pump it was 61 µM; at Melanocortin receptor 3 it was over 30 µM.
As for `C=C[C@H]1C[N@@]2CC[C@H]1C[C@H]2[C@H](O)c1ccnc2ccc(OC)cc12` [QUININE], the AC50 at Bile salt export pump was over 300 µM.
Regarding `CS(=O)(=O)c1ccc(C2=C(c3ccccc3)C(=O)OC2)cc1` [ROFECOXIB], the half-maximal activity concentration (AC50) in [1] was over 10 µM; in [2] it was over 30 µM; in [3], over 30 µM; at D(3) dopamine receptor, over 10 µM; in [4], over 30 µM; on Adenosine receptor A2a it was over 30 µM. For the same compound, the AC50 in assay [5] is over 30 µM; in assay [6], over 30 µM; in [7] it was over 30 µM; in [8], over 10 µM; in assay [9], 4.7 µM; in [10], over 10 µM. The values for the AC50 on Vasopressin V1a receptor and at Melanocortin receptor 3 were over 10 µM and over 30 µM, respectively.
As for `CCOC(=O)[C@H](CCc1ccccc1)N[C@@H](C)C(=O)N1[C@H](C(=O)O)C[C@H]2CCCC[C@@H]21` [TRANDOLAPRIL], at Bile salt export pump, the concentration at half-maximal activity (AC50) was determined as 220 µM.
Same read-out and setting: the result for `CCCCCCOc1nsnc1C1=CCCN(C)C1` [XANOMELINE] reads over 300 µM.
